# According to publication PMC5856640 (ACS chemical biology, 2018):
# Target: Mpa (mycobacterial proteasome ATPase) (Mycobacterium tuberculosis, UniProt P9WQN5)
# Experiment: […]
# Type: binding
# Mpa (mycobacterial proteasome ATPase), sequence (P9WQN5 whole entry): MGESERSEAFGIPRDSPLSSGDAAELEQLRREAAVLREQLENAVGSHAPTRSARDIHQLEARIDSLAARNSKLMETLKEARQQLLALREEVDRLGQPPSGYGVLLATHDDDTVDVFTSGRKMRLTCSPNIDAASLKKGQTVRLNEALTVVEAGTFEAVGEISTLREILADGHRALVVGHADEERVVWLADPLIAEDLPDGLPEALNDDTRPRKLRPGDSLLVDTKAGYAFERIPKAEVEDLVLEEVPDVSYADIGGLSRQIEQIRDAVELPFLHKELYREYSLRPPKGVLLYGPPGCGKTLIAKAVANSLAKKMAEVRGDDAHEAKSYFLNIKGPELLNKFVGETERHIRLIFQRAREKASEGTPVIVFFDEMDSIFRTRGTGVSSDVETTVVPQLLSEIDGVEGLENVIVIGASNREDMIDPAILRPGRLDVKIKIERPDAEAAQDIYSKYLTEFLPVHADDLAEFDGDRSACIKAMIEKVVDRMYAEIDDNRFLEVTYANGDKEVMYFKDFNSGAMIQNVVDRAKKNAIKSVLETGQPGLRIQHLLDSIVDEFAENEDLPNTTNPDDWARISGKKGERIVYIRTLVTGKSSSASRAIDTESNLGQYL
row,SMILES,Kd
1,"c1ccc(N=NN2CCOCC2)cc1 [MTBA, NSC 136065]",0.001 ± 0.0001 µM
2,"Cn1cnc2ncnn2c1=S [MTBB, NSC 145180]",0.4 ± 0.1 µM
